Experiments:
Type in all cases: functional
[1] = test system: Avena sterilis; assay: Herbicidal activity against Avena sterilis accession P20 assessed as induction of weed mortality
[2] = test system: Avena sterilis; assay: Herbicidal activity against Avena sterilis accession P01 assessed as weed survival at 4 times field recommended herbicide dose
[3] = test system: Avena sterilis; assay: Herbicidal activity against Avena sterilis accession P08 assessed as induction of weed mortality
[4] = test system: Avena sterilis; assay: Herbicidal activity against Avena sterilis accession P18 assessed as weed survival at 8 times field recommended herbicide dose
[5] = test system: Avena sterilis; assay: Herbicidal activity against Avena sterilis accession P21S assessed as weed survival at 1 times field recommended herbicide dose
[6] = test system: Avena sterilis; assay: Herbicidal activity against Avena sterilis accession P22 assessed as weed survival at 1 times field recommended herbicide dose
[7] = test system: Avena sterilis; assay: Herbicidal activity against Avena sterilis accession P02 assessed as weed survival at 1 times field recommended herbicide dose
[8] = test system: Avena sterilis; assay: Herbicidal activity against Avena sterilis accession P15 assessed as weed survival at 1 times field recommended herbicide dose
[9] = test system: Avena sterilis; assay: Herbicidal activity against Avena sterilis accession P14 assessed as weed survival at 16 times field recommended herbicide dose
[10] = test system: Avena sterilis; assay: Herbicidal activity against Avena sterilis accession P07 assessed as weed survival at 16 times field recommended herbicide dose
[11] = test system: Avena sterilis; assay: Herbicidal activity against Avena sterilis accession P10S assessed as weed survival at 1/32 times field recommended herbicide dose
[12] = test system: Avena sterilis; assay: Herbicidal activity against Avena sterilis accession P22 assessed as weed survival at 32 times field recommended herbicide dose
[13] = test system: Avena sterilis; assay: Herbicidal activity against Avena sterilis accession P17 assessed as weed survival at 8 times field recommended herbicide dose
[14] = test system: Avena sterilis; assay: Herbicidal activity against Avena sterilis accession P06S assessed as weed survival at 1/8 times field recommended herbicide dose
[15] = test system: Avena sterilis; assay: Herbicidal activity against Avena sterilis accession P17 assessed as weed survival at 4 times field recommended herbicide dose
[16] = test system: Avena sterilis; assay: Herbicidal activity against Avena sterilis accession P09 assessed as weed survival at 1 times field recommended herbicide dose
[17] = test system: Avena sterilis; assay: Herbicidal activity against Avena sterilis accession P07 assessed as weed survival at 1 times field recommended herbicide dose
[18] = test system: Avena sterilis; assay: Herbicidal activity against Avena sterilis accession P12 assessed as weed survival at 32 times field recommended herbicide dose
[19] = test system: Avena sterilis; assay: Herbicidal activity against Avena sterilis accession P07 assessed as induction of weed mortality
[20] = test system: Avena sterilis; assay: Herbicidal activity against Avena sterilis accession P22 assessed as induction of weed mortality
[21] = test system: Avena sterilis; assay: Herbicidal activity against Avena sterilis accession P13S assessed as weed survival at 1 times field recommended herbicide dose
[22] = test system: Avena sterilis; assay: Herbicidal activity against Avena sterilis accession P10S assessed as weed survival at 1/8 times field recommended herbicide dose
[23] = test system: Avena sterilis; assay: Herbicidal activity against Avena sterilis accession P15 assessed as weed survival at 16 times field recommended herbicide dose
[24] = test system: Avena sterilis; assay: Herbicidal activity against Avena sterilis accession P03 assessed as weed survival at 4 times field recommended herbicide dose
[25] = test system: Avena sterilis; assay: Herbicidal activity against Avena sterilis accession P20 assessed as weed survival at 1 times field recommended herbicide dose
[26] = test system: Avena sterilis; assay: Herbicidal activity against Avena sterilis accession P01 assessed as induction of weed mortality
[27] = test system: Avena sterilis; assay: Herbicidal activity against Avena sterilis accession P04 assessed as weed survival at 16 times field recommended herbicide dose
[28] = test system: Avena sterilis; assay: Herbicidal activity against Avena sterilis accession P22 assessed as weed survival at 4 times field recommended herbicide dose
[29] = test system: Avena sterilis; assay: Herbicidal activity against Avena sterilis accession P10S assessed as induction of weed mortality
[30] = test system: Avena sterilis; assay: Herbicidal activity against Avena sterilis accession P16 assessed as weed survival at 32 times field recommended herbicide dose
[31] = test system: Avena sterilis; assay: Herbicidal activity against Avena sterilis accession P02 assessed as weed survival at 32 times field recommended herbicide dose
[32] = test system: Avena sterilis; assay: Herbicidal activity against Avena sterilis accession P08 assessed as weed survival at 32 times field recommended herbicide dose
[33] = test system: Avena sterilis; assay: Herbicidal activity against Avena sterilis accession P08 assessed as weed survival at 8 times field recommended herbicide dose
[34] = test system: Avena sterilis; assay: Herbicidal activity against Avena sterilis accession P09 assessed as weed survival at 16 times field recommended herbicide dose
[35] = test system: Avena sterilis; assay: Herbicidal activity against Avena sterilis accession P01 assessed as weed survival at 16 times field recommended herbicide dose
[36] = test system: Avena sterilis; assay: Herbicidal activity against Avena sterilis accession P09 assessed as weed survival at 32 times field recommended herbicide dose
[37] = test system: Avena sterilis; assay: Herbicidal activity against Avena sterilis accession P05 assessed as weed survival at 4 times field recommended herbicide dose
[38] = test system: Avena sterilis; assay: Herbicidal activity against Avena sterilis accession P22 assessed as weed survival at 16 times field recommended herbicide dose
[39] = test system: Avena sterilis; assay: Herbicidal activity against Avena sterilis accession P12 assessed as weed survival at 8 times field recommended herbicide dose
[40] = test system: Avena sterilis; assay: Herbicidal activity against Avena sterilis accession P12 assessed as induction of weed mortality
[41] = test system: Avena sterilis; assay: Herbicidal activity against Avena sterilis accession P21S assessed as weed survival at 1/32 times field recommended herbicide dose
[42] = test system: Avena sterilis; assay: Herbicidal activity against Avena sterilis accession P14 assessed as weed survival at 32 times field recommended herbicide dose
[43] = test system: Avena sterilis; assay: Herbicidal activity against Avena sterilis accession P13S assessed as weed survival at 1/8 times field recommended herbicide dose
[44] = test system: Avena sterilis; assay: Herbicidal activity against Avena sterilis accession P11 assessed as weed survival at 8 times field recommended herbicide dose
[45] = test system: Avena sterilis; assay: Herbicidal activity against Avena sterilis accession P03 assessed as induction of weed mortality
[46] = test system: Avena sterilis; assay: Herbicidal activity against Avena sterilis accession P13S assessed as weed survival at 1/32 times field recommended herbicide dose
[47] = test system: Avena sterilis; assay: Herbicidal activity against Avena sterilis accession P15 assessed as weed survival at 4 times field recommended herbicide dose
[48] = test system: Avena sterilis; assay: Herbicidal activity against Avena sterilis accession P19S assessed as weed survival at 1/32 times field recommended herbicide dose
[49] = test system: Avena sterilis; assay: Herbicidal activity against Avena sterilis accession P02 assessed as weed survival at 4 times field recommended herbicide dose
[50] = test system: Avena sterilis; assay: Herbicidal activity against Avena sterilis accession P12 assessed as weed survival at 16 times field recommended herbicide dose
[51] = test system: Avena sterilis; assay: Herbicidal activity against Avena sterilis accession P05 assessed as weed survival at 16 times field recommended herbicide dose
[52] = test system: Avena sterilis; assay: Herbicidal activity against Avena sterilis accession P14 assessed as weed survival at 4 times field recommended herbicide dose
[53] = test system: Avena sterilis; assay: Herbicidal activity against Avena sterilis accession P06S assessed as weed survival at 1 times field recommended herbicide dose
[54] = test system: Avena sterilis; assay: Herbicidal activity against Avena sterilis accession P15 assessed as weed survival at 8 times field recommended herbicide dose
[55] = test system: Avena sterilis; assay: Herbicidal activity against Avena sterilis accession P09 assessed as weed survival at 4 times field recommended herbicide dose
[56] = test system: Avena sterilis; assay: Herbicidal activity against Avena sterilis accession P19S assessed as induction of weed mortality
[57] = test system: Avena sterilis; assay: Herbicidal activity against Avena sterilis accession P11 assessed as weed survival at 4 times field recommended herbicide dose
[58] = test system: Avena sterilis; assay: Herbicidal activity against Avena sterilis accession P05 assessed as weed survival at 1 times field recommended herbicide dose

## CCc1cc(C)cc(CC)c1-c1c(OC(=O)C(C)(C)C)n2n(c1=O)CCOCC2 [PINOXADEN]
[1]
  GR50: 42 gAi/ha
[2]
  Survival: 17%
[3]
  GR50: <40 gAi/ha
[4]
  Survival: 0%
[5]
  Survival: 0%
[6]
  Survival: 20%
[7]
  Survival: 20%
[8]
  Survival: 20%
[9]
  Survival: 0%
[10]
  Survival: 0%
[11]
  Survival: 100%
[12]
  Survival: 0%
[13]
  Survival: 0%
[14]
  Survival: 20%
[15]
  Survival: 0%
[16]
  Survival: 0%
[17]
  Survival: 0%
[18]
  Survival: 0%
[19]
  GR50: <40 gAi/ha
[20]
  GR50: <40 gAi/ha
[21]
  Survival: 0%
[22]
  Survival: 20%
[23]
  Survival: 0%
[24]
  Survival: 3%
[25]
  Survival: 63%
[26]
  GR50: <40 gAi/ha
[27]
  Survival: 0%
[28]
  Survival: 0%
[29]
  GR50: 4.1 gAi/ha
[30]
  Survival: 0%
[31]
  Survival: 0%
[32]
  Survival: 0%
[33]
  Survival: 0%
[34]
  Survival: 0%
[35]
  Survival: 0%
[36]
  Survival: 0%
[37]
  Survival: 0%
[38]
  Survival: 0%
[39]
  Survival: 0%
[40]
  GR50: <40 gAi/ha
[41]
  Survival: 100%
[42]
  Survival: 0%
[43]
  Survival: 20%
[44]
  Survival: 0%
[45]
  GR50: <40 gAi/ha
[46]
  Survival: 100%
[47]
  Survival: 0%
[48]
  Survival: 100%
[49]
  Survival: 0%
[50]
  Survival: 0%
[51]
  Survival: 0%
[52]
  Survival: 0%
[53]
  Survival: 0%
[54]
  Survival: 0%
[55]
  Survival: 0%
[56]
  GR50: 6.6 gAi/ha
[57]
  Survival: 0%
[58]
  Survival: 20%

## CCO/N=C(\CC)C1=C(O)CC(c2c(C)cc(C)cc2C)CC1=O (stereo unspecified) [TRALKOXYDIM]
[1]
  GR50: 2916 gAi/ha
[2]
  Survival: 43%
[3]
  GR50: 781 gAi/ha
[4]
  Survival: 0%
[5]
  Survival: 20%
[6]
  Survival: 57%
[7]
  Survival: 77%
[8]
  Survival: 70%
[9]
  Survival: 0%
[10]
  Survival: 0%
[11]
  Survival: 97%
[12]
  Survival: 0%
[13]
  Survival: 7%
[14]
  Survival: 30%
[15]
  Survival: 20%
[16]
  Survival: 60%
[17]
  Survival: 23%
[18]
  Survival: 0%
[19]
  GR50: <400 gAi/ha
[20]
  GR50: 434 gAi/ha
[21]
  Survival: 0%
[22]
  Survival: 30%
[23]
  Survival: 20%
[24]
  Survival: 60%
[25]
  Survival: 97%
[26]
  GR50: 766 gAi/ha
[27]
  Survival: 60%
[28]
  Survival: 40%
[29]
  GR50: 29 gAi/ha
[30]
  Survival: 0%
[31]
  Survival: 0%
[32]
  Survival: 0%
[33]
  Survival: 17%
[34]
  Survival: 0%
[35]
  Survival: 0%
[36]
  Survival: 0%
[37]
  Survival: 40%
[38]
  Survival: 20%
[39]
  Survival: 0%
[40]
  GR50: <400 gAi/ha
[41]
  Survival: 100%
[42]
  Survival: 0%
[43]
  Survival: 23%
[44]
  Survival: 0%
[45]
  GR50: 1561 gAi/ha
[46]
  Survival: 93%
[47]
  Survival: 20%
[48]
  Survival: 100%
[49]
  Survival: 40%
[50]
  Survival: 0%
[51]
  Survival: 0%
[52]
  Survival: 0%
[53]
  Survival: 0%
[54]
  Survival: 20%
[55]
  Survival: 20%
[56]
  GR50: 11 gAi/ha
[57]
  Survival: 0%
[58]
  Survival: 40%

— ChEMBL document CHEMBL3046559, “Sterile oat (Avena sterilis L.) cross-resistance profile to ACCase-inhibiting herbicides in Greece” (2012)
